Assay results reported in US5888971A, “Macrocyclic peptides useful in the treatment of thrombin related disorders” (Ortho Pharmaceutical Corporation, Inc., priority 1996, dated 1999).

What was measured:
[1] = molecular target: T1, Bovine type 1 trypsin (Bos taurus, UniProt P00760); assay: Trypsin-catalyzed hydrolysis of chromogenic substrate, Ki; type: biochemical; details: 3.2 U/ml trypsin, 0.1-0.3 mM Spectrozyme TRY; read-out: Trp Ki
T1 construct: purchased Sigma
T1 sequence (P00760 24-246): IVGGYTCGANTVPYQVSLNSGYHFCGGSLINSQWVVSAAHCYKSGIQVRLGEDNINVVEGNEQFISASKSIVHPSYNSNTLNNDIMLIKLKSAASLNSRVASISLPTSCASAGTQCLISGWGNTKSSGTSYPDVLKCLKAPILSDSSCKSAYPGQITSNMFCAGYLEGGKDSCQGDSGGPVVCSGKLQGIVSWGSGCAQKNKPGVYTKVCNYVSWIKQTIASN
Description: (§1) The compounds of the invention were tested for their ability to inhibit thrombin mediated hydrolysis.
Trypsin-catalyzed hydrolysis rates were measured using the same method as the thrombin procedure.

[2] = molecular target: T2, human alpha-thrombin (Homo sapiens, UniProt P00734); assay: Thrombin-catalyzed hydrolysis of chromogenic substrate, Michaelis-Menten Ki; type: biochemical; details: 1 nM thrombin, 5-100 μM Spectozyme TH, 37° C., pH 7.4, Michaelis-Menten kinetics; for Ki: read-out: Thr Ki
T2 construct: commercial human alpha-thrombin (American Diagnostica); purchased American Diagnostica
Description: as §1
Changes in absorbance at 405 nm were monitored (Softmax, Molecular Devices), upon addition of enzyme, both with and without inhibitor present at 37° C. over 30 minutes. […] Michaelis-Menton kinetics were applied to the initial reaction slopes using the program K Cat (Bio Metallics Inc.).

[3] = molecular target: T2, human alpha-thrombin; assay: Slow, tight-binding kinetics with thrombin (Ki-slow); type: biochemical; details: 0.1 nM thrombin, 50 μM Spectozyme TH, 25° C., 4 h; read-out: Thr Ki -slow
Description: Ki-slow was determined by measuring enzyme-catalyzed hydrolysis rates. […] The compound numbers in the table correspond to the examples described hereinafter.

[4] = molecular target: thrombin (Homo sapiens, UniProt P00734); details: background section; cited from earlier work

Row | Compound | Ki [1] | Ki [2] | Ki [3] | Ki [4] | selectivity for thrombin over trypsin [4] | Thr Ki [2]
1 | 3S,6S,12R-N-[3-(12-BENZYL-2,5,11,14,20-PENTAOXO-23-THIA-4,10,13,19,24-PENTAAZATRICYCLO[19.2.1.3]-6,10-TETRACOSA-1(2H), 21-DIEN-3-YL)PROPYL]GUANIDINE [Compound 23] | 66 ± 26 nM | 1000 ± 400 nM |  |  |  | 
2 | 5R,14R,18S,20aS-N-[3-(5-BENZYL-14-METHYI-4,7,13,16,17,20-HEXAOXOEICOSAHYDRO-3a,6,12,15,19-PENTAAZACYCLOPENTA-CYCLONONADECEN-18-YL)PROPYL]GUANIDINE TRIFLUOROACETIC ACID [Compound 21] | 22 ± 14 nM | 92 ± 46 nM | 4.71 ± 1.51 nM |  |  | 
3 | 5R,15R,19S,21 AS-N-[3-(15-BENZHYDRYL-5-BENZYL-4,7,14,17,18,21-HEXAOXODOCOSAHYDRO-3a,6,13,16,20-PENTMZACYCLOPENTACYCLOEICOSEN-19-YL)PPROPYL]GUANIDINE TRIFLUOROACETIC ACID [Compound 19] | 2.5 ± 0.75 nM | 5.3 ± 2.6 nM |  |  |  | 
4 | 5R, 2S, 18S-N-[3-(5-NAPTHALEN-2-YLMETHYL-4, 17, 16, 17, 20-PENTAOXOEICOSAHYDRO-3a, 6, 15, 19-TETRAAZACYCLOPENTACYCLONONADECEN-18-YL)PROPYL] GUANIDINE TRIFLUOROACETATE HYDRATE [Compound 6] | 6.8 ± 5 nM | 21 ± 5 nM |  |  |  | 
5 | 6R, 19S, 22S-N-[3-(6-BENZYL-5, 8, 17, 18, 21-PENTAOXODOCOSAHYDRO-4a, 7, 16, 20-TETRAAZABENCBZOCYCLONONADECEN-19-YL) PROPYL] GUANIDINE TRIFLUOROACETIC ACID HYDRATE [Compound 5] | 85 ± 29 nM | 90 ± 8.6 nM |  |  |  | 
6 | N=C(N)NCCCC1NC(=O)CCCCCNC(=O)C(Cc2ccccc2)NC(=O)C1=O (centres unmarked) [Compound 18, N-[3-(3-BENZYL-2,5,6,9-TETRAOXO-1,4,8-TRIAZACYCLOTETRADEC-7-YL)PROPYL]GUANIDINE TRIFLUOROACETIC ACID] | 310 ± 10 nM | 3800 ± 200 nM |  |  |  | 
7 | N=C(N)NCCC[C@@H]1NC(=O)[C@@H]2CCCN2C(=O)[C@@H](NC=O)CNC(=O)/C=C/[C@H](Cc2ccc(O)cc2)NC(=O)[C@@H](Cc2ccccc2)NC(=O)C1=O [CtA, Cyclotheonamide A, reference compound] | 23000 nM | 170 ± 80 nM | 4 ± 1.9 nM | 1 to 2 nM | does not favor thrombin | 
8 | CN[C@H](Cc1ccccc1)C(=O)N1CCC[C@H]1C(=O)N[C@H](C=O)CCCN=C(N)N [N-Me-PPAC, N-Me PPACK aldehyde, reference compound] |  | 10 nM |  |  |  | 
9 | [20aR-(20aR, 5R, 18S)]-N-[3-(5-PHENYLETHYL-17-HYDROXY-4, 7, 16, 20-TETRAOXOEICOSAHYDRO-3a, 6, 15, 19-TETRA-AZACYCLONONADECANE-18-YL) PROPYIL] GUANIDINE [Compound 22] |  |  |  |  |  | no activity at 50 μM
